One assay concerns the target T1, CCR4 (Homo sapiens, UniProt P51679).
T1 construct: expressed in transfected cells; host or cells: CHO cell membranes
T1 sequence (P51679 1-360): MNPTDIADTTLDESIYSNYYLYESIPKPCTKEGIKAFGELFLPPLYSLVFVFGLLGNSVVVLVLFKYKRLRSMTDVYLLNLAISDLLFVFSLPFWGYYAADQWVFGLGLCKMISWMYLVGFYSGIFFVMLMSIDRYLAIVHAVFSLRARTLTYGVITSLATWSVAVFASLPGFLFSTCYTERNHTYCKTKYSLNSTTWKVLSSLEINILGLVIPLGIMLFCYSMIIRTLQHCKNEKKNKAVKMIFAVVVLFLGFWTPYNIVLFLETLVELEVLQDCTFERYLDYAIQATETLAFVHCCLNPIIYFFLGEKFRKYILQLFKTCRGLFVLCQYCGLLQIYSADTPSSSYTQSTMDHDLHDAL
Put plainly: [35S]-GTPγS SPA binding assay for CCR4 antagonist activity. The format is biochemical. Particulars: CCR4 expressing CHO membranes; human MDC at EC80; [35S]-GTPγS competition. As to the method: [35S]-GTPγS SPA Binding Assays for CCR4 Antagonist Activity
Antagonist potency was determined by a radioligand [35S]-GTPγS competition assay. Briefly, CCR4 expressing CHO membranes were homogenised by passing through a 23G needle. These membranes were then adhered to WGA-coated Leadseeker SPA beads in assay buffer (20 mM HEPES, 10 mM MgCl2, 100 mM NaCl, 0.05% BSA, 40 ug/ml Saponin and pH adjusted to 7.4 using KOH 5M) to generate a 3 μg/well final assay concentration (FAC) membrane and 250 μg/well FAC bead, solution.
The bead/membrane/[35S]-GTPγS/Agonist suspension was dispensed into white Greiner polypropylene 384-well plates (45 μl/well), containing 0.5 μl of compound. […] Plates were then read on a Viewlux instrument and luminescence was then plotted as a percentage of the maximum inhibitional response elicited by an IC100 of a standard antagonist.
In general terms: Binding of GTPγS marks nucleotide exchange on a G protein.

The next assay deals with CD4+ CCR4+ T cells. Put plainly: Chemokine stimulated increases in cellular F-actin content. The format is cell-based. Particulars: Homo sapiens, T-cell, 0.5 h; PBMC from normal volunteers; antagonist 30 min at 37° C. before agonist for 15 sec; F-actin content by flow cytometry; read-out: pA2 (converted). In a few lines: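 Human PBMC from citrated volunteer blood, stained for CD4 and CCR4, were pre-incubated with antagonist or vehicle (0.1% DMSO) for 30 min at 37 °C, then stimulated with agonist for 15 s and formaldehyde-fixed. F-actin was stained with phalloidin and read by flow cytometry as CD4+CCR4+ MFI relative to CD4+CCR4− cells.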

The structures appear in SMILES notation. Counter-ions that a name gives are not always drawn. Some results are limits rather than exact numbers.

As usually defined, the IC50 is the point on the concentration scale where inhibition reaches its midpoint. Lower therefore signals greater potency. Molecule `COc1cccc2c1c(NS(=O)(=O)c1ccc(Cl)s1)nn2Cc1cccc(CNC(=O)C2CNCCN2)c1` (stereo not drawn) [Example 16, N-[(3-{[3-{[(5-chloro-2-thienyl)sulfonyl]amino}-4-(methyloxy)-1H-indazol-1-yl]methyl}phenyl)methyl]-2-piperazinecarboxamide hydrochloride] had a half-maximal inhibitory concentration (IC50) on CCR4 of 3.98 to 15.8 nM. Besides, in the assay with CD4+ CCR4+ T cells, the Kb was at most 126 nM.

Molecule `CN[C@@H](C)C(=O)NCc1cccc(Cn2nc(NS(=O)(=O)c3ccc(Cl)s3)c3c(OC)cccc32)c1` [Example 17, N^1-[(3-{[3-{[(5-chloro-2-thienyl)sulfonyl]amino}-4-(methyloxy)-1H-indazol-1-yl]methyl}phenyl)methyl]-N^2-methyl-L-alaninamide trifluoroacetate] had an IC50 on CCR4 of 3.98 to 15.8 nM. Also, the Kb with CD4+ CCR4+ T cells is at most 126 nM.

On CCR4, `COc1cccc2c1c(NS(=O)(=O)c1ccc(Cl)s1)nn2Cc1cccc(CNC(=O)[C@H](C)N)c1` [Example 18, N^1-[(3-{[3-{[(5-chloro-2-thienyl)sulfonyl]amino}-4-(methyloxy)-1H-indazol-1-yl]methyl}phenyl)methyl]-L-alaninamide trifluoroacetate] had an IC50 of 3.98 to 15.8 nM. In addition, the Kb in the assay on CD4+ CCR4+ T cells is at most 126 nM.

Molecule `COc1cccc2c1c(NS(=O)(=O)c1ccc(Cl)s1)nn2Cc1cccc(CNC(=O)CC(N)=O)c1` [Example 21, N-[(3-{[3-{[(5-chloro-2-thienyl)sulfonyl]amino}-4-(methyloxy)-1H-indazol-1-yl]methyl}phenyl)methyl]propanediamide] gave a 50% inhibitory concentration (IC50) on CCR4 of 3.98 to 15.8 nM. For the same molecule, in the assay with CD4+ CCR4+ T cells, the Kb was at most 126 nM.

Molecule `COc1cccc2c1c(NS(=O)(=O)c1ccc(Cl)s1)nn2Cc1cccc(CNC(=O)C(C)CN)c1` (stereo not drawn) [Example 26, 3-Amino-N-[(3-{[3-{[(5-chloro-2-thienyl)sulfonyl]amino}-4-(methyloxy)-1H-indazol-1-yl]methyl}phenyl)methyl]-2-methylpropanamide trifluoroacetate] gave an IC50 at CCR4 of 3.98 to 15.8 nM. Also, in the assay with CD4+ CCR4+ T cells, the Kb was at most 126 nM.

For the molecule `COc1cccc2c1c(NS(=O)(=O)c1ccc(Cl)s1)nn2Cc1cccc(CNC(=O)[C@]2(C)CCCN2)c1` [Example 27, N-[(3-{[3-{[(5-chloro-2-thienyl)sulfonyl]amino}-4-(methyloxy)-1H-indazol-1-yl]methyl}phenyl)methyl]-2-methyl-L-prolinamide trifluoroacetate], the IC50 at CCR4 is 3.98 to 15.8 nM. For the same molecule, in the assay with CD4+ CCR4+ T cells, the Kb was at most 126 nM.

In turn, `COc1cccc2c1c(NS(=O)(=O)c1ccc(Cl)s1)nn2Cc1cccc(CNC(=O)[C@@H]2C[C@H](F)CN2)c1` [Example 28, (4S)—N-[(3-{[3-{[(5-chloro-2-thienyl)sulfonyl]amino}-4-(methyloxy)-1H-indazol-1-yl]methyl}phenyl)methyl]-4-fluoro-L-prolinamide trifluoroacetate] showed a half-maximal inhibitory concentration (IC50) on CCR4 of 3.98 to 15.8 nM. Further, the Kb in the assay on CD4+ CCR4+ T cells is at most 126 nM.

For `COc1cccc2c1c(NS(=O)(=O)c1ccc(Cl)s1)nn2Cc1cccc(CNC(=O)c2cn[nH]c2)c1` [Example 33, N-[(3-{[3-{[(5-Chloro-2-thienyl)sulfonyl]amino}-4-(methyloxy)-1H-indazol-1-yl]methyl}phenyl)methyl]-1H-pyrazole-4-carboxamide], the 50% inhibitory concentration (IC50) on CCR4 is 3.98 to 15.8 nM. Also, the Kb in the assay on CD4+ CCR4+ T cells is at most 126 nM.

As to `COc1cccc2c1c(NS(=O)(=O)c1ccc(Cl)s1)nn2Cc1cccc(CNC(=O)C2CCOC2)c1` (stereo not drawn) [Example 35, N-[(3-{[3-{[(5-Chloro-2-thienyl)sulfonyl]amino}-4-(methyloxy)-1H-indazol-1-yl]methyl}phenyl)methyl]tetrahydro-3-furancarboxamide], at CCR4, the IC50 is 3.98 to 15.8 nM. Further, in the assay with CD4+ CCR4+ T cells, the Kb was at most 126 nM.

With `COc1cccc2c1c(NS(=O)(=O)c1ccc(Cl)s1)nn2Cc1cccc(CNC(=O)C(C)O)c1` (stereo not drawn) [Example 37, N-[(3-{[3-{[(5-Chloro-2-thienyl)sulfonyl]amino}-4-(methyloxy)-1H-indazol-1-yl]methyl}phenyl)methyl]-2-hydroxypropanamide], on CCR4, the IC50 is 3.98 to 15.8 nM. Also, in the assay with CD4+ CCR4+ T cells, the Kb is at most 126 nM.

`COc1cccc2c1c(NS(=O)(=O)c1ccc(Cl)s1)nn2Cc1cccc(CNC(=O)C2CCOCC2)c1` [Example 43, N-[(3-{[3-{[(5-chloro-2-thienyl)sulfonyl]amino}-4-(methyloxy)-1H-indazol-1-yl]methyl}phenyl)methyl]tetrahydro-2H-pyran-4-carboxamide]: the half-maximal inhibitory concentration (IC50) on CCR4 is 3.98 to 15.8 nM. In addition, the Kb in the assay on CD4+ CCR4+ T cells was at most 126 nM.

The molecule `COc1cccc2c1c(NS(=O)(=O)c1ccc(Cl)s1)nn2Cc1cccc(CNC(=O)[C@@H](N)Cc2cnc[nH]2)c1` [Example 44, N-[(3-{[3-{[(5-Chloro-2-thienyl)sulfonyl]amino}-4-(methyloxy)-1H-indazol-1-yl]methyl}phenyl)methyl]-L-histidinamide] showed an IC50 on CCR4 of 3.98 to 15.8 nM. Moreover, in the assay on CD4+ CCR4+ T cells, the Kb is at most 126 nM.

The molecule `COc1cccc2c1c(NS(=O)(=O)c1ccc(Cl)s1)nn2Cc1cccc(CNC(=O)[C@H](N)C(C)C)c1` [Example 48, N^1-[(3-{[3-{[(5-Chloro-2-thienyl)sulfonyl]amino}-4-(methyloxy)-1H-indazol-1-yl]methyl}phenyl)methyl]-D-valinamide] gave an IC50 at CCR4 of 3.98 to 15.8 nM. For the same molecule, the Kb in the assay with CD4+ CCR4+ T cells is at most 126 nM.

Regarding `COc1cccc2c1c(NS(=O)(=O)c1ccc(Cl)s1)nn2Cc1cccc(CNC(=O)[C@@H]2CCCCN2)c1` [Example 51, (2S)—N-[(3-{[3-{[(5-Chloro-2-thienyl)sulfonyl]amino}-4-(methyloxy)-1H-indazol-1-yl]methyl}phenyl)methyl]-2-piperidinecarboxamide trifluoroacetate], at CCR4, the IC50 is 3.98 to 15.8 nM. The Kb with CD4+ CCR4+ T cells was at most 126 nM.

On CCR4, `COc1cccc2c1c(NS(=O)(=O)c1ccc(Cl)s1)nn2Cc1cccc(CNC(=O)[C@@H]2C[C@@H](F)CN2)c1` [Example 52, (4R)—N-[(3-{[3-{[(5-Chloro-2-thienyl)sulfonyl]amino}-4-(methyloxy)-1H-indazol-1-yl]methyl}phenyl)methyl]-4-fluoro-L-prolinamide trifluoroacetate] showed an IC50 of 3.98 to 15.8 nM. Besides, the Kb in the assay with CD4+ CCR4+ T cells was at most 126 nM.

`COc1cccc2c1c(NS(=O)(=O)c1ccc(Cl)s1)nn2Cc1cccc(CNC(=O)[C@H]2CC(F)(F)CN2)c1` [Example 55, N-[(3-{[3-{[(5-Chloro-2-thienyl)sulfonyl]amino}-4-(methyloxy)-1H-indazol-1-yl]methyl}phenyl)methyl]-4,4-difluoro-D-prolinamide trifluoroacetate]: at CCR4, the 50% inhibitory concentration (IC50) was 3.98 to 15.8 nM. Also, the Kb in the assay with CD4+ CCR4+ T cells was at most 126 nM.

`COc1cccc2c1c(NS(=O)(=O)c1ccc(Cl)s1)nn2Cc1cccc(CNC(=O)C(C)(C)O)c1` [Example 57, N-[(3-{[3-{[(5-Chloro-2-thienyl)sulfonyl]amino}-4-(methyloxy)-1H-indazol-1-yl]methyl}phenyl)methyl]-2-hydroxy-2-methylpropanamide]: the IC50 at CCR4 is 3.98 to 15.8 nM. In the assay on CD4+ CCR4+ T cells, the Kb was at most 126 nM.

With `NC(=O)c1cccc(Cn2nc(NS(=O)(=O)c3ccc(Cl)s3)c3c(O)cccc32)c1` [Example 70, 3-[(3-{[(5-Chloro-2-thienyl)sulfonyl]amino}-4-hydroxy-1H-indazol-1-yl)methyl]benzamide], the 50% inhibitory concentration (IC50) on CCR4 is 3.98 to 15.8 nM. In the assay with CD4+ CCR4+ T cells, the Kb is at most 126 nM.

The values above are taken from US8304446B2, “Compounds” (Glaxo Group Limited, priority 2009, dated 2012).
